Data: a melting point compilation (Tetko et al.)

SMILES | melting point [°C]
O=C(O)CCC(=O)c1ccc(Cl)cc1 | 129 to 132
COc1cc(-c2ccc(N=C=O)c(OC)c2)ccc1N=C=O | 114
CC(Cc1ccccc1)=NNc1ccccc1 | 85
O=S(=O)(Oc1ccc(Cl)cc1Cl)c1ccccc1 | 45.5
O=CC(C=O)c1ccc(Cl)cc1[N+](=O)[O-] | 137 to 143
CCC(C)Cl (stereo not drawn) | -140
Cc1ccccc1/C=C(/C#N)c1nc2ccccc2c(=O)[nH]1 | 258
Cc1cccc(NC(=O)C(C(F)(F)F)C(F)(F)F)n1 | 107
CC(C)=CCCC(C)=CC=CC(C)=CC=CC(C)=CC=CC=C(C)C=CC=C(C)C=CC1=C(C)CCCC1(C)C | 178
Fc1ccc2c3c([nH]c2c1)CNCC3 | 224
CCOC(=O)c1ccc(N=C=S)cc1 | 57
O=C(CCl)Nc1cccc(Cl)c1Cl | 104 to 106
O=C(O)c1cccnc1N1CCOCC1 | 129 to 133
CN1CCN(c2ccc(N)cc2)CC1 | 92
CCCC1OC2CC3C4CCC5=CC(=O)C=CC5(C)C4C(O)CC3(C)C2(C(=O)CO)O1 (stereo not drawn) | 226
ClCc1nc(-c2ccc(Cl)cc2)no1 | 60 to 61
FC(F)(F)c1ccc(-c2nc(CCl)cs2)cc1 | 80 to 85
CC1CCC(C(C)C)/C(=N\NC(N)=O)C1 (stereo not drawn) | 216 to 217
CNCc1sc(-c2ccccc2)nc1-c1ccccc1 | 87 to 88
O=C(CCCN1CCC(O)(c2ccc(Br)cc2)CC1)c1ccc(F)cc1 | 155
CCOc1ccccc1OCCBr | 42
Cc1ccccc1NC(=O)c1cncc(Cl)n1 | 98

SMILES | melting point [°C]
Fc1ccc(Br)c2ccccc12 | 35
COc1ccc2cc1Oc1ccc(cc1)CC1c3cc(c(OC)cc3CCN1C)Oc1c(OC)c(OC)cc3c1C(C2)N(C)CC3 (stereo not drawn) | 218
CC(=O)CCc1oc2ccc([N+](=O)[O-])cc2c1-c1ccc(C)o1 | 124
ClC1Cc2cc3c(cc21)OCO3 (stereo not drawn) | 55
Nc1cnccc1Cl | 61
COP(=O)(OC)OC=C(Cl)Cl | -60
CC(C)NCC(O)COc1ccc(O)cc1 (stereo not drawn) | 128
CCC(C(=O)C=Cc1ccccc1)C(=O)OC1CC(C)CCC1C(C)C (stereo not drawn) | 135
NC(=O)CBr | 89
CCO[Si](c1ccccc1)(c1ccccc1)c1ccccc1 | 65
Cc1cccc(C(C)(C)C)c1O | 31
O=C(O)c1cc2sccc2[nH]1 | 180
CC12CCC(=O)C=C1CCC1C2CCC2(C)C(OCc3ccccc3)CCC12 (stereo not drawn) | 198 to 199
FC(F)(F)c1cc(Br)ccc1Br | 49
CCOC(=O)C(C#N)=C(N)c1cc2cccc(OC)c2oc1=O | 251 to 252
O=C(O)c1cc(Cl)nnc1Cl | 139
CSC(=CC(=C(C#N)C#N)c1ccccc1)SC | 117 to 121
Clc1ccc(C(c2ccccc2Cl)C(Cl)Cl)cc1 (stereo not drawn) | 77
O=CNC(Nc1ccc(Cl)c(Cl)c1)C(Cl)(Cl)Cl (stereo not drawn) | 135
CCCCC(NC(=O)OCC1c2ccccc2-c2ccccc21)C(=O)O (stereo not drawn) | 141
CCC(=O)OC1CCC2(C)C(=CCC3C2CCC2(C)C(C(C)CCCC(C)C)CCC32)C1 (stereo not drawn) | 97 to 100
CC(C)(C)NC(=S)c1cc(C(C)(C)C)c(O)c(C(C)(C)C)c1 | 203 to 204

SMILES | melting point [°C]
CCCC(=O)Oc1c[nH]c2ccc(Br)c(Cl)c12 | 91 to 93
CC12CCC(CC/C1=N\Nc1ccc([N+](=O)[O-])cc1[N+](=O)[O-])C2(C)C (stereo not drawn) | 232 to 233
CCCCCCCCCCCCCc1ccccc1 | 10
CCCOC(=O)C1=C(C)NC(=O)NC1c1ccc2c(c1)OCO2 (stereo not drawn) | 184 to 185
S=C=Nc1ccc(Oc2ccccc2)nc1 | 41 to 42
Cc1nc(-c2ccc(C(F)(F)F)cc2)sc1C(=O)O | 237 to 238
CCCCCCCCOc1ccccc1OCCCCCCCC | 22 to 25
BrCc1ccc2nonc2c1 | 77 to 80
O=[N+]([O-])c1ccc(N2CCNCC2)c(Cl)c1 | 105 to 106
Cc1nc(-c2ccc(S(=O)(=O)Cl)cc2)cs1 | 111 to 112
CC1CCC(C(C)C)C(OC(=O)OC2CC(C)CCC2C(C)C)C1 (stereo not drawn) | 106
CCOC(=O)C(C#N)=Cc1ccccc1 | 51
CCCOc1ccc(C(N)=NO)cc1 | 105 to 106
NC(=O)OCCCc1ccccc1 | 102
CCN1CN(CC)CN(CC)C1 | 70
O=C1C(Br)C2c3ccccc3C(C1Br)C(Br)C(=O)C2Br (stereo not drawn) | 80
O=C(CCCN1CCC2(CC1)C(=O)NCN2c1ccccc1)c1ccc(F)cc1 | 190
O=C(c1ccc(O)cc1)c1ccc(O)cc1O | 197 to 198
CC1CCc2cc3c(cc2N1C(=O)c1ccccc1)CCC(C)N3C(=O)c1ccccc1 (stereo not drawn) | 270
CC(C)(O)C#Cc1ccccn1 | 83
C(#CP(c1ccccc1)c1ccccc1)P(c1ccccc1)c1ccccc1 | 86
CS(=O)(=O)c1nc(Br)c(C#N)c(-c2ccc(Cl)cc2)c1Cl | 158

SMILES | melting point [°C]
Cc1ccc(C)c(N/N=C(/C#N)c2nc3ccccc3c(=O)[nH]2)c1 | 205
CCOC(=O)c1nn(-c2ccc(C)cc2)c(C)c1C(=O)c1noc(-c2ccc([N+](=O)[O-])cc2)c1S(=O)(=O)c1ccccc1 | 189
CC1(C)OC(C)(C(O)(c2ccccc2)c2ccccc2)CCC1C(=O)O (stereo not drawn) | 163
CON1C(=O)C(=O)N(OC)C2CCCCC21 (stereo not drawn) | 128 to 131
Nc1cc(-c2ccccc2)nn1-c1ccccc1 | 131
CCOC(=O)C12CCC(C(=O)OCC)(CC1=O)C(=O)C2 | 111 to 113
CC12CCC(=O)C=C1CCC1C2CCC2(C)C(OC(=O)CCC3CCCC3)CCC12 (stereo not drawn) | 155
O=CC(C=O)c1ccncc1 | 320
ClC1=C(Cl)C2(Cl)C3C(Cl)OC(Cl)C3C1(Cl)C2(Cl)Cl (stereo not drawn) | 121
c1cocn1 | -86
c1ccc2c(c1)cc1ccc3cccc4c5ccccc5c2c1c34 | 162
CCC(=O)c1cccc(C(F)(F)F)c1 | 19
COc1cccc(C=C2C(=O)NN=C2c2c(O)c3ccccc3n(C)c2=O)c1 | 254
C/C=C/c1nc(O)n(-c2ccccc2)n1 | 188
NC1(C(=O)O)CC1 | 257
O=[N+]([O-])c1ccc(CN2CCOCC2)cc1 | 79.6 to 80
Cc1occc1C(=O)O | 102 to 105
O=C(c1ccccc1)c1cccc2ccccc12 | 76
Nc1cc(N)c(/C=C/c2ccccc2)c(N)c1C=Cc1ccccc1 | 161
OC(c1ccccc1)(c1ccccc1)[C@H]1CCCN1 | 77 to 81
COc1ccc(N/N=C(\C#N)c2nc(-c3ccccc3)cs2)cc1 | 150
CNN | -21
